Measured values published in patent US8962648B2, “Tricyclic compounds and PBK inhibitors containing the same” (OncoTherapy Science, Inc., priority 2010, dated 2015).
Structures can show the parent of a compound that is named as a salt. Where two headings read alike, the source gives them in different places.

Assays:
22Rv1 cells = assay: Cell-based assay, cellular growth (Cell Counting Kit-8, 72 hours); conditions: Homo sapiens
HT-1197 cells = assay: Cell-based assay, cellular growth (Cell Counting Kit-8, 72 hours), PBK-negative control cells
Description: (§1) 100 micro-L of cell suspension was seeded onto 96-well microtiter plate (ViewPlate-96FTC, PerkinElmer). […] Cellular growth was determined using Cell Counting Kit-8 (DOJINDO) at 72 hours after the exposure of the candidate inhibitors. […] Accurate IC50 values were calculated as described previously.

PBK = PBK (Homo sapiens (Human), UniProt Q96KB5); assay: Kinase assay (IMAP fluorescence polarization, FITC-labeled histone H3 peptide); type: biochemical
Description: PBK activity was determined in the presence or absence of compounds using fluorescein isothiocyanate-labeled (FITC-labeled) histone H3 peptide as a substrate. […] The serially diluted compounds, 0.8 ng/micro-L PBK (Carna Biosciences) and 100 nM FITC-labeled histone H3 peptide were reacted in a reaction buffer (20 mM HEPES, 0.01% Tween-20, 0.3 mM MgCl2, 2 mM dithiothreitol, 50 micro-M ATP, pH 7.4) at room temperature for 1 hour. The reaction was stopped by the addition of three fold assay volume of progressive binding solution. […] IC50 values were calculated by nonlinear four parameter fit using SigmaPlot, version 10.0 (Systat Software, Inc.).

A549 cells = assay: Cell-based assay, cellular growth (Cell Counting Kit-8, 72 hours)
Description: as §1

BT-549 cells = assay: as above; conditions: Homo sapiens, BT549 cells
Description: as §1

T47D cells = assay: as above
Description: as §1

[1] = PBK 0.8 ng/micro-L, 50 micro-M ATP, 100 nM FITC-labeled histone H3 peptide, room temperature 1 hour

Chain of PBK (Q96KB5 whole entry): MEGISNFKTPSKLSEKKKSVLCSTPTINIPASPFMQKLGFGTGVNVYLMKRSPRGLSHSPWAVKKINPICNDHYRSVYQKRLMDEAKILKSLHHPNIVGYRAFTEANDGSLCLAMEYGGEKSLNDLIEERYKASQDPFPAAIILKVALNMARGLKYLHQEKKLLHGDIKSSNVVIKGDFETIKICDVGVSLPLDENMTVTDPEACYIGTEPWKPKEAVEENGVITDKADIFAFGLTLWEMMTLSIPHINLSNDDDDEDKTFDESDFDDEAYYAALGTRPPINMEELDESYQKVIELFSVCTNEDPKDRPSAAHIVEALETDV

| SMILES | IC50 (22Rv1 cells) | IC50 (HT-1197 cells; Homo sapiens, HT1197, 72 h) | IC50 (PBK; [1]) | IC50 (A549 cells; Homo sapiens, A549, 72 h) | IC50 (BT-549 cells) | IC50 (T47D cells; Homo sapiens, T47D, 72 h) | IC50 (HT-1197 cells; HT1197 cells (PBK-negative control), hydrobromide) | IC50 (PBK; PBK 0.8 ng/micro-L, 50 micro-M ATP, 100 nM FITC-labeled histone H3 peptide, room temperature 1 hour, hydrobromide) | IC50 (A549 cells; hydrobromide) | IC50 (T47D cells; hydrobromide) | IC50 (PBK) | IC50 (PBK; PBK 0.8 ng/micro-L, 50 micro-M ATP, 100 nM FITC-labeled histone H3 peptide, room temperature 1 hour, hydrochloride) |
| --- | --- | --- | --- | --- | --- | --- | --- | --- | --- | --- | --- | --- |
| C[C@@H](CN)c1ccc(-c2c(O)ccc3[nH]c(=O)c4sccc4c23)cc1 [Compound 1160, (R)-9-(4-(1-aminopropan-2-yl)phenyl)-8-hydroxythieno[2,3-c]quinolin-4(5H)-one hydrochloride] | 69 nM | 230 nM | 0.64 nM | 56 nM | 54 nM | 57 nM | – | – | – | – | – | – |
| Cc1cc(O)c(-c2ccc([C@@H](C)CN)cc2)c2c1[nH]c(=O)c1sccc12 [Compound 1169, (R)-9-(4-(1-aminopropan-2-yl)phenyl)-8-hydroxy-6-methylthieno[2,3-c]quinolin-4(5H)-one hydrobromide] | 22 nM | – | – | 23 nM | 13 nM | 24 nM | – | – | – | – | – | – |
| CNC[C@H](C)c1ccc(-c2c(OC)cc(C)c3[nH]c(=O)c4sccc4c23)cc1 [Compound 1298, (R)-8-methoxy-6-methyl-9-(4-(1-(methylamino)propan-2-yl)phenyl)thieno[2,3-c]quinolin-4(5H)-one hydrochloride] | – | 160 nM | 32 nM | 68 nM | 64 nM | 140 nM | – | – | – | – | – | – |
| Cc1cc(O)c(-c2ccc(C3CCCNC3)cc2)c2c1[nH]c(=O)c1sccc12 (centres unmarked) [Compound 1302, 8-hydroxy-6-methyl-9-(4-(piperidin-3-yl)phenyl)thieno[2,3-c]quinolin-4(5H)-one hydrochloride] | – | 1500 nM | 75 nM | 970 nM | 740 nM | 830 nM | – | – | – | – | – | – |
| Cc1cc(O)c(-c2ccc([C@H](C)CN)c(F)c2)c2c1[nH]c(=O)c1sccc12 [Compound 1303, (S)-9-(4-(1-aminopropan-2-yl)-3-fluorophenyl)-8-hydroxy-6-methylthieno[2,3-c]quinolin-4(5H)-one] | – | 510 nM | 14 nM | 92 nM | 81 nM | 130 nM | – | – | – | – | – | – |
| COc1cc(C)c2[nH]c(=O)c3sccc3c2c1-c1ccc([C@@H](C)CN)cc1 [Compound 1305, (R)-9-(4-(1-aminopropan-2-yl)phenyl)-8-methoxy-6-methylthieno [2,3-c]quinolin-4(5H)-one hydrochloride] | – | 64 nM | 15 nM | 20 nM | 21 nM | 40 nM | – | – | – | – | – | – |
| CNC[C@H](C)c1ccc(-c2c(O)cc(C)c3[nH]c(=O)c4sccc4c23)cc1 [Compound 1307, (R)-8-hydroxy-6-methyl-9-(4-(1-(methylamino)propan-2-yl)phenyl)thieno [2,3-c]quinolin-4(5H)-one hydrobromide] | – | – | – | – | 42 nM | – | 150 nM | 18 nM | 57 nM | 85 nM | – | – |
| COc1cc(C)c2[nH]c(=O)c3sccc3c2c1-c1ccc([C@H](C)CN)c(F)c1 [Compound 1310, (S)-9-(4-(1-aminopropan-2-yl)-3-fluorophenyl)-8-methoxy-6-methylthieno[2,3-c]quinolin-4(5H)-one hydrochloride] | – | 890 nM | – | 370 nM | 400 nM | 800 nM | – | – | – | – | 54 nM | – |
| Cc1cc(O)c(-c2ccc([C@@H](C)CN(C)C)c(F)c2)c2c1[nH]c(=O)c1sccc12 [Compound 1311, (R)-9-(4-(1-(dimethylamino)propan-2-yl)-3-fluorophenyl)-8-hydroxy-6-methylthieno[2,3-c]quinolin-4(5H)-one hydrochloride] | – | 110 nM | – | 45 nM | 37 nM | 70 nM | – | – | – | – | 17 nM | – |
| CNC[C@H](C)c1ccc(-c2c(O)cc(C)c3[nH]c(=O)c4sccc4c23)cc1F [Compound 1315, (R)-9-(3-fluoro-4-(1-(methylamino)propan-2-yl)phenyl)-8-hydroxy-6-methylthieno[2,3-c]quinolin-4(5H)-one hydrochloride] | – | 100 nM | – | 34 nM | 24 nM | 41 nM | – | – | – | – | 8.1 nM | – |
| CNC[C@H](C)c1ccc(-c2c(OC)cc(C)c3[nH]c(=O)c4sccc4c23)cc1F [Compound 1316, (R)-9-(3-fluoro-4-(1-(methylamino)propan-2-yl)phenyl)-8-methoxy-6-methylthieno[2,3-c]quinolin-4(5H)-one hydrochloride] | – | 230 nM | – | 86 nM | 83 nM | 160 nM | – | – | – | – | 33 nM | – |
| COc1cc(C)c2[nH]c(=O)c3sccc3c2c1-c1ccc([C@@H](C)CN)c(F)c1 [Compound 1317, (R)-9-(4-(1-aminopropan-2-yl)-3-fluorophenyl)-8-methoxy-6-methylthieno[2,3-c]quinolin-4(5H)-one hydrochloride] | – | 100 nM | – | 42 nM | 36 nM | 72 nM | – | – | – | – | 22 nM | – |
| Cc1cc(O)c(-c2ccc([C@@H](C)CN)c(F)c2)c2c1[nH]c(=O)c1sccc12 [Compound 1318, (R)-9-(4-(1-aminopropan-2-yl)-3-fluorophenyl)-8-hydroxy-6-methylthieno[2,3-c]quinolin-4(5H)-one hydrochloride] | – | 63 nM | – | 15 nM | 8.4 nM | 15 nM | – | – | – | – | – | 3.6 nM |
| C[C@@H](CN(C)C)c1ccc(-c2c(O)cc(Cl)c3[nH]c(=O)c4sccc4c23)cc1 [Compound 1347, (R)-6-chloro-9-(4-(1-(dimethylamino)propan-2-yl)phenyl)-8-hydroxythieno [2,3-c]quinolin-4(5H)-one hydrochloride] | – | 260 nM | 43 nM | 100 nM | 110 nM | 260 nM | – | – | – | – | – | – |
| CC[C@@H](CN)c1ccc(-c2c(O)cc(C)c3[nH]c(=O)c4sccc4c23)cc1 [Compound 1352, (R)-9-(4-(1-aminobutan-2-yl)phenyl)-8-hydroxy-6-methylthieno[2,3-c]quinolin-4(5H)-one hydrochloride] | – | 340 nM | 40 nM | 55 nM | 71 nM | 99 nM | – | – | – | – | – | – |
| CNCCc1ccc(-c2c(O)cc(C)c3[nH]c(=O)c4sccc4c23)cc1 [Compound 1364, 8-hydroxy-6-methyl-9-(4-(2-(methylamino)ethyl)phenyl)thieno[2,3-c]quinolin-4(5H)-one hydrochloride] | – | 660 nM | 55 nM | 270 nM | 260 nM | 300 nM | – | – | – | – | – | – |
